Where “and” joins values, the source holds several entries; their conditions need not be identical. Equal entries are not always repeated. Inconclusive results and toxic doses are left out.
Test system: CD2F1 mice, L1210 leukemia ip, survival T/C
Assay: NCI In Vivo Anticancer Drug Screen. Data for tumor model L1210 Leukemia (intraperitoneal) in CD2F1 (CDF1) mice
Conditions: higher = longer survival
Summary of the method: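 Transplantable tumor in mice; compound-treated vs vehicle-treated groups. Read-out = treated/control ratio of the measured endpoint.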

[1] = endpoint: mean survival time, dose: 100.0 mg/kg/injection, schedule: Q01DX009 (ip), vehicle: saline
[2] = endpoint: mean survival time, dose: 200.0 mg/kg/injection, schedule: Q01DX009 (ip), vehicle: saline
[3] = endpoint: mean survival time, dose: 100.0 mg/kg/injection, schedule: Q04DX002 (ip), vehicle: saline
[4] = endpoint: mean survival time, dose: 100.0 mg/kg/injection, schedule: Q01DX009 (ip), vehicle: saline with Tween-80
[5] = endpoint: mean survival time, dose: 200.0 mg/kg/injection, schedule: Q01DX009 (ip), vehicle: saline with Tween-80
[6] = endpoint: mean survival time, dose: 100.0 mg/kg/injection, schedule: Q04DX003 (ip), vehicle: saline with Tween-80
[7] = endpoint: mean survival time, dose: 200.0 mg/kg/injection, schedule: Q04DX003 (ip), vehicle: saline with Tween-80
[8] = endpoint: mean survival time, dose: 400.0 mg/kg/injection, schedule: Q04DX003 (ip), vehicle: saline with Tween-80
[9] = endpoint: mean survival time, dose: 100.0 mg/kg/injection, schedule: Q04DX002 (ip), vehicle: Klucel (hydroxypropylcellulose) (HPC)
[10] = endpoint: mean survival time, dose: 12.5 mg/kg/injection, schedule: Q01DX009 (ip), vehicle: saline with Tween-80
[11] = endpoint: mean survival time, dose: 25.0 mg/kg/injection, schedule: Q01DX009 (ip), vehicle: saline with Tween-80
[12] = endpoint: mean survival time, dose: 25.0 mg/kg/injection, schedule: Q04DX003 (ip), vehicle: saline with Tween-80
[13] = endpoint: mean survival time, dose: 50.0 mg/kg/injection, schedule: Q04DX003 (ip), vehicle: saline with Tween-80
[14] = endpoint: mean survival time, dose: 50.0 mg/kg/injection, schedule: Q01DX009 (ip), vehicle: saline with Tween-80
[15] = endpoint: mean survival time, dose: 75.0 mg/kg/injection, schedule: Q01DX001 (ip), vehicle: other
[16] = endpoint: mean survival time, dose: 150.0 mg/kg/injection, schedule: Q01DX001 (ip), vehicle: other

For O=C(O)C1C2c3ccccc3C(C1C(=O)O)[n+]1ccccc12 (centres undefined), the T/C (endpoint: mean survival time, dose: 100.0 mg/kg/injection, schedule: Q01DX001 (ip), vehicle: saline) was 96 % of control, the T/C (endpoint: mean survival time, dose: 200.0 mg/kg/injection, schedule: Q01DX001 (ip), vehicle: saline) was 102 % of control and the T/C (endpoint: mean survival time, dose: 400.0 mg/kg/injection, schedule: Q01DX001 (ip), vehicle: saline) was 93 % of control.

For O=C(N=C1OC2C(OC(=O)c3ccccc3)C(COC(=O)c3ccccc3)OC2N1C(=O)c1ccccc1)c1ccccc1 (centres undefined), the T/C [1] was 100 % of control, the T/C [2] was 100 % of control and the T/C (endpoint: median survival time, dose: 100.0 mg/kg/injection, schedule: Q04DX003 (ip), vehicle: saline sonified) was 87 % of control. The T/C (endpoint: median survival time, dose: 200.0 mg/kg/injection, schedule: Q04DX003 (ip), vehicle: saline sonified) was 100 % of control and the T/C (endpoint: median survival time, dose: 400.0 mg/kg/injection, schedule: Q04DX003 (ip), vehicle: saline sonified) was 100 % of control.

With O=C(O)CCC(O)CC(=O)OCc1ccccc1 (centres undefined) the T/C [3] was 107 % of control, the T/C (endpoint: mean survival time, dose: 200.0 mg/kg/injection, schedule: Q04DX002 (ip), vehicle: saline) was 107 % of control and the T/C (endpoint: mean survival time, dose: 400.0 mg/kg/injection, schedule: Q04DX002 (ip), vehicle: saline) was 96 % of control.

O=C(c1ccccc1)C1CC1c1ccccc1 (centres undefined) was tested, and the T/C [1] was 101 % of control, the T/C [2] was 90 % of control and the T/C (endpoint: mean survival time, dose: 400.0 mg/kg/injection, schedule: Q01DX009 (ip), vehicle: saline) was 94 % of control.

COCc1ccc(C(=O)O)cc1 was tested, and the T/C (endpoint: mean survival time, dose: 100.0 mg/kg/injection, schedule: Q01DX001 (ip), vehicle: saline with Tween-80) was 105 % of control, the T/C (endpoint: mean survival time, dose: 200.0 mg/kg/injection, schedule: Q01DX001 (ip), vehicle: saline with Tween-80) was 96 % of control and the T/C (endpoint: mean survival time, dose: 400.0 mg/kg/injection, schedule: Q01DX001 (ip), vehicle: saline with Tween-80) was 97 % of control.

With CCN(CC)CCN1CC2CC=CCC2C1 (centres undefined) the T/C [4] was 96 % of control.

In the case of NCCOS(=O)(=O)O, the T/C (endpoint: mean survival time, dose: 25.0 mg/kg/injection, schedule: Q01DX009 (ip), vehicle: saline) is reported as 102 % of control, the T/C (endpoint: mean survival time, dose: 50.0 mg/kg/injection, schedule: Q01DX009 (ip), vehicle: saline) is reported as 98 % of control and the T/C [1] is reported as 96 % of control.

In the case of CSc1nc(Cl)cc(/N=C/N(C)C)n1, the T/C [4] is reported as 102 % of control and the T/C [5] is reported as 98 % of control.

For O=C(COc1ccccc1)Nc1ccc([N+](=O)[O-])cc1, the T/C [6] was 100 % of control, the T/C [7] was 99 % of control and the T/C [8] was 100 % of control.

For CCOC(=O)C1(C(=O)OCC)C(C)CC(O)N1C(=O)c1ccccc1[N+](=O)[O-] (centres undefined), the T/C (endpoint: mean survival time, dose: 100.0 mg/kg/injection, schedule: Q01DX001 (ip), vehicle: Klucel (hydroxypropylcellulose) (HPC)) was 100 % of control, the T/C (endpoint: mean survival time, dose: 200.0 mg/kg/injection, schedule: Q01DX001 (ip), vehicle: Klucel (hydroxypropylcellulose) (HPC)) was 96 % of control and the T/C (endpoint: mean survival time, dose: 400.0 mg/kg/injection, schedule: Q01DX001 (ip), vehicle: Klucel (hydroxypropylcellulose) (HPC)) was 104 % of control.

For CCCCCCCCCCCCCCCC(=O)OCC1OC(N2C=CC(=O)CC2=O)C(O)C1O (centres undefined), the T/C (endpoint: median survival time, dose: 13.0 mg/kg/injection, schedule: Q01DX009 (ip), vehicle: saline + alcohol) was 174 % of control, the T/C (endpoint: median survival time, dose: 20.0 mg/kg/injection, schedule: Q01DX009 (ip), vehicle: saline + alcohol) was 188 % of control and the T/C (endpoint: median survival time, dose: 30.0 mg/kg/injection, schedule: Q01DX009 (ip), vehicle: saline + alcohol) was 174 % of control.

For Nc1nc(N)c2nc(-c3ccccc3Cl)c(-c3ccccc3Cl)nc2n1, the T/C (endpoint: mean survival time, dose: 25.0 mg/kg/injection, schedule: Q04DX002 (ip), vehicle: Klucel (hydroxypropylcellulose) (HPC)) was 91 % of control, the T/C (endpoint: mean survival time, dose: 50.0 mg/kg/injection, schedule: Q04DX002 (ip), vehicle: Klucel (hydroxypropylcellulose) (HPC)) was 98 % of control and the T/C [9] was 95 % of control.

With Cc1cc2ccc(Cl)cc2[nH]1 the T/C (endpoint: mean survival time, dose: 100.0 mg/kg/injection, schedule: Q01DX001 (ip), vehicle: other) was 104 % of control and the T/C (endpoint: mean survival time, dose: 200.0 mg/kg/injection, schedule: Q01DX001 (ip), vehicle: other) was 104 % of control.

With O=S(c1ccccc1)C1OC12CCCCC2 (centres undefined) the T/C [6] was 97 % of control, the T/C [7] was 98 % of control and the T/C [8] was 97 % of control.

In the case of CC(=O)Nc1ccc(Nc2ccc(C(=C3C=CC(=[N+](C)CCC#N)C=C3)c3ccc(N(C)CCC#N)cc3)cc2)cc1, the T/C (endpoint: mean survival time, dose: 12.0 mg/kg/injection, schedule: Q01DX009 (ip), vehicle: saline with Tween-80) is reported as 107 % of control, the T/C [10] is reported as 107 % of control and the T/C [11] is reported as 105 % of control and 109 % of control. The T/C (endpoint: mean survival time, dose: 200.0 mg/kg/injection, schedule: Q04DX002 (ip), vehicle: saline with Tween-80) was 106 % of control.

O=C(NC(Cc1ccccc1)C(=O)CCl)OCc1ccccc1 (centres undefined) was tested, and the T/C [12] was 97 % of control, the T/C [13] was 100 % of control and the T/C [6] was 109 % of control.

In the case of C1CC[N-]CC1.CC(=N\O)/C(C)=N/O.CC(=N\O)/C(C)=N/O.[CH2-]CCN1CCOCC1.[Co+2], the T/C [11] is reported as 105 % of control, the T/C [12] is reported as 103 % of control and the T/C [14] is reported as 105 % of control. For the same compound, the T/C [13] was 106 % of control and the T/C [6] was 112 % of control.

In the case of CCCCC1CCC(N)CC1 (centres undefined), the T/C (endpoint: mean survival time, dose: 100.0 mg/kg/injection, schedule: Q04DX003 (ip), vehicle: saline) is reported as 96 % of control.

In the case of O=C(CNC(=O)Nc1cccc(C(F)(F)F)c1)N/N=C/c1ccco1, the T/C [14] is reported as 92 % of control, the T/C [4] is reported as 92 % of control and the T/C [5] is reported as 88 % of control.

O=[N+]([O-])c1ccccc1CSc1ncnc2nc[nH]c12 was tested, and the T/C [14] was 110 % of control, the T/C [13] was 108 % of control and the T/C [4] was 121 % of control. The T/C [6] was 110 % of control, the T/C (endpoint: mean survival time, dose: 132.0 mg/kg/injection, schedule: Q04DX003 (ip), vehicle: saline with Tween-80) was 108 % of control and the T/C [5] was 158 % of control.

For NC(N)=NS(=O)(=O)c1ccc(NCc2c3ccccc3nc3ccccc23)cc1, the T/C (endpoint: median survival time, dose: 50.0 mg/kg/injection, schedule: Q01DX005 (ip), vehicle: Klucel (hydroxypropylcellulose) (HPC)) was 150 % of control, the T/C (endpoint: median survival time, dose: 172.8 mg/kg/injection, schedule: Q01DX005 (ip), vehicle: Klucel (hydroxypropylcellulose) (HPC)) was 178 % of control and the T/C (endpoint: median survival time, dose: 200.0 mg/kg/injection, schedule: Q01DX005 (ip), vehicle: Klucel (hydroxypropylcellulose) (HPC)) was 153 % of control. For the same compound, the T/C (endpoint: median survival time, dose: 400.0 mg/kg/injection, schedule: Q01DX005 (ip), vehicle: Klucel (hydroxypropylcellulose) (HPC)) was 172 % of control, the T/C (endpoint: median survival time, dose: 480.0 mg/kg/injection, schedule: Q01DX005 (ip), vehicle: Klucel (hydroxypropylcellulose) (HPC)) was 150 % of control and the T/C (endpoint: median survival time, dose: 800.0 mg/kg/injection, schedule: Q01DX005 (ip), vehicle: Klucel (hydroxypropylcellulose) (HPC)) was 178 % of control and 182 % of control. For the same compound, the T/C (endpoint: median survival time, dose: 1333.33 mg/kg/injection, schedule: Q01DX005 (ip), vehicle: Klucel (hydroxypropylcellulose) (HPC)) was 187 % of control.

With CC1CCC(NC(=O)NCCF)CC1 (centres undefined) the T/C [15] was 100 % of control and the T/C [16] was 115 % of control.

In the case of CN1CCN(Cc2nc3cccc4c3c([n+]2[O-])-c2ccccc2-4)CC1, the T/C [10] is reported as 91 % of control and 97 % of control and 102 % of control, the T/C [11] is reported as 96 % of control and 101 % of control and 102 % of control and the T/C [14] is reported as 94 % of control and 102 % of control and 103 % of control. The T/C [4] was 117 % of control and 105 % of control and 108 % of control.

For c1ccc(C2=NNC(c3ccccn3)=NN2)nc1, the T/C [4] was 95 % of control, the T/C [6] was 97 % of control and the T/C [5] was 101 % of control. The T/C [7] was 92 % of control, the T/C (endpoint: mean survival time, dose: 400.0 mg/kg/injection, schedule: Q01DX009 (ip), vehicle: saline with Tween-80) was 97 % of control and the T/C [8] was 101 % of control.

With O=C(O)C(=O)O.[Co].[NH-]CC[NH-].[NH-]CC[NH-] the T/C [3] was 98 % of control.

With OC(c1ccccc1)c1ccccn1 (centres undefined) the T/C (endpoint: mean survival time, dose: 100.0 mg/kg/injection, schedule: Q04DX003 (ip), vehicle: other) was 93 % of control, the T/C (endpoint: mean survival time, dose: 200.0 mg/kg/injection, schedule: Q04DX003 (ip), vehicle: other) was 98 % of control and the T/C (endpoint: mean survival time, dose: 400.0 mg/kg/injection, schedule: Q04DX003 (ip), vehicle: other) was 98 % of control.

With CC(C)(C)c1ccc(S(=O)(=O)CC(=O)O)cc1 the T/C [15] was 104 % of control, the T/C [6] was 104 % of control and the T/C [16] was 100 % of control. The T/C [7] was 102 % of control, the T/C (endpoint: mean survival time, dose: 300.0 mg/kg/injection, schedule: Q01DX001 (ip), vehicle: other) was 98 % of control and the T/C [8] was 104 % of control.

For OCc1ccc2c(n1)COC(c1ccccc1)O2 (centres undefined), the T/C [9] was 102 % of control, the T/C (endpoint: mean survival time, dose: 200.0 mg/kg/injection, schedule: Q04DX002 (ip), vehicle: Klucel (hydroxypropylcellulose) (HPC)) was 94 % of control and the T/C (endpoint: mean survival time, dose: 400.0 mg/kg/injection, schedule: Q04DX002 (ip), vehicle: Klucel (hydroxypropylcellulose) (HPC)) was 94 % of control.

From PubChem BioAssay AID256 (DTP/NCI, 2004)
